Molecular target: Human Full Length PARG (Homo sapiens (Human), UniProt Q86W56)
Assay: PARG in vitro enzyme assay (TR-FRET)
Assay type: biochemical
Details: read-out: PARG_EC50_ENZYME
Method: PARG In vitro assays were conducted in a total volume of 15 ul in a standard 384 well format. 5 ul of Human Full Length PARG (Produced internally by Astra Zeneca), used at a final reaction concentration of […], was added to 5 ul of Ribosylated PARP substrate (also produced internally by Astra Zeneca) at final reaction concentration of 4.5 nM in assay buffer (50 mM Tris pH7.4, 0.1 mg/ml BSA, 3 mM EDTA, 0.4 mM EGTA, 1 mM DTT, 0.01% Tween 20, 50 mM KCl). The reaction was incubated at room temperature for 10 minutes and then 5 ul detection reagent was added. Detection Reagent consists of 42 nM MAb Anti-6HIS XL665 (CisBio: 61 HISXLB) and 2.25 nM Streptavidin Europium Cryptate (CisBio: 610SAKLB), both at 3× working stock concentrations (final concentrations of 14 nM and 0.75 nM respectively), in a detection buffer of 50 mM Tris pH7.4, BSA at 0.1 mg/ml and KF at 100 mM. Following incubation at room temperature for 60 minutes in the dark, TR-FRET signal was measured at Ex 340 and Em 665 and Em 620. A ratio was calculated as Em665/EM620×104 for each well and used to calculate percent inhibition for test compounds.

Chain of Human Full Length PARG (Q86W56 whole entry): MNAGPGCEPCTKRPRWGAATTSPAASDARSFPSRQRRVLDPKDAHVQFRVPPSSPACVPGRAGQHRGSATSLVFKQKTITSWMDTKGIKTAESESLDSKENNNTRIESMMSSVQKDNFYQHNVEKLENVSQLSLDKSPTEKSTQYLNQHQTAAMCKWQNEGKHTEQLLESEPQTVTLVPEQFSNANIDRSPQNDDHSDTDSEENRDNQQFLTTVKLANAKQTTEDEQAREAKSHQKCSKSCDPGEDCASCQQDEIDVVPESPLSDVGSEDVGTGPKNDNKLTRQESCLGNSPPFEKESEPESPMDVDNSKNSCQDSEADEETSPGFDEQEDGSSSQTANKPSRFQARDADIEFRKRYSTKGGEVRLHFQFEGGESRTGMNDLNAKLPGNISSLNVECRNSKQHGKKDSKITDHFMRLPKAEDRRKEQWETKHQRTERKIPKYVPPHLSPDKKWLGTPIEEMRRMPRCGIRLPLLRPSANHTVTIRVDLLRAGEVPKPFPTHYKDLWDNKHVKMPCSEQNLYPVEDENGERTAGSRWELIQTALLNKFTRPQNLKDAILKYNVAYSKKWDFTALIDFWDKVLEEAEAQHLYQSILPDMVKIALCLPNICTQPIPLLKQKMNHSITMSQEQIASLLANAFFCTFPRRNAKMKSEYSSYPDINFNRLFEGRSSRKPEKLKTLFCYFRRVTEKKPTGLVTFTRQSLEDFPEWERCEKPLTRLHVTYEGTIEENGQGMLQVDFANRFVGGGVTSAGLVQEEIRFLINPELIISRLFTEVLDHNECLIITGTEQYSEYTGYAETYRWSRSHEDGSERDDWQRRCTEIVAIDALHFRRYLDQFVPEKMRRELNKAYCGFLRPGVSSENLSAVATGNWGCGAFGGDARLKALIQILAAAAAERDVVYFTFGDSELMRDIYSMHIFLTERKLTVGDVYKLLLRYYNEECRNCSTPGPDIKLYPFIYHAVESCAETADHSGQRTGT

SMILES: CN(C)C(=O)CCc1cnc(-n2c(=O)n(C)c3ccc(S(=O)(=O)NC4(C)CC4)cc32)s1 [Example 71, N, N-Dimethyl-3-[2-[3-methyl-6-[(1-methylcyclopropyl)sulfamoyl]-2-oxo-benzimidazol-1-yl]thiazol-5-yl]propanamide]
- EC50: 7050 nM

SMILES: CC1(NS(=O)(=O)c2ccc3c(c2)[nH]c(=O)n3Cc2ccc(F)cc2)CC1 [Example 72, 1-[(4-Fluorophenyl)methyl]-N-(1-methylcyclopropyl)-2-oxo-3H-benzimidazole-5-sulfonamide]
- EC50: 8300 nM

SMILES: CNC(=O)CCc1cnc(-n2c(=O)n(C)c3ccc(S(=O)(=O)NC4(C)CC4)cc32)s1 [Example 74, N-methyl-3-[2-[3-methyl-6-[(1-methylcyclopropyl)sulfamoyl]-2-oxo-benzimidazol-1-yl]thiazol-5-yl]propanamide]
- EC50: 9730 nM

SMILES: CCOC(=O)n1c(=O)n(Cc2ccc(F)cc2)c2ccc(S(=O)(=O)NC3(C)CC3)cc21 [Example 75]
- EC50: 925 nM

SMILES: CC1(NS(=O)(=O)c2ccc3c(c2)n(-c2nccs2)c(=O)n3Cc2ccc(F)cc2)CC1 [Example 76]
- EC50: 2710 nM

SMILES: Cn1c(=O)n(-c2nncs2)c2cc(S(=O)(=O)NC3(C)CC3)ccc21 [Example 77]
- EC50: 5000 nM

SMILES: Cn1c(=O)n(-c2nnc(C(F)(F)F)s2)c2cc(S(=O)(=O)NC3(C)CC3)ccc21 [Example 78]
- EC50: 717 nM

SMILES: Cc1nnc(-n2c(=O)[nH]c3ccc(S(=O)(=O)NC4(C)CC4)cc32)s1 [Example 80, N-(1-Methylcyclopropyl)-3-(5-methyl-1,3,4-thiadiazol-2-yl)-2-oxo-1H-benzimidazole-5-sulfonamide]
- EC50: 732 nM

SMILES: Cc1nnc(-n2c(=O)n(CCN(C)C)c3ccc(S(=O)(=O)NC4(C)CC4)cc32)s1 [Example 85]
- EC50: 684 nM

SMILES: Cc1nc(C)c(Cn2c(=O)[nH]c3cc(S(=O)(=O)NC4(C)CC4)ccc32)s1 [Example 89, 1-[(2,4-Dimethylthiazol-5-yl)methyl]-N-(1-methylcyclopropyl)-2-oxo-3H-benzimidazole-5-sulfonamide]
- EC50: 9270 nM

SMILES: Cc1nc(C)c(Cn2c(=O)n(-c3cnsc3)c3cc(S(=O)(=O)NC4(C)CC4)ccc32)s1 [Example 93]
- EC50: 1340 nM

SMILES: Cc1nnc(-n2c(=O)[nH]c3ccc(S(=O)(=O)NC4(C)CC4)cc32)o1 [Example 94, N-(1-Methylcyclopropyl)-3-(5-methyl-1,3,4-oxadiazol-2-yl)-2-oxo-1H-benzimidazole-5-sulfonamide]
- EC50: 1460 nM

SMILES: Cc1nc(C)c(Cn2c(=O)n(-c3cscn3)c3cc(S(=O)(=O)NC4(C)CC4)ccc32)s1 [Example 95]
- EC50: 740 nM

SMILES: Cc1nc(C)c(Cn2c(=O)n(-c3ccn(C)n3)c3cc(S(=O)(=O)NC4(C)CC4)ccc32)s1 [Example 96]
- EC50: 7030 nM

SMILES: Cc1nc(C)c(Cn2c(=O)n(-c3cncs3)c3cc(S(=O)(=O)NC4(C)CC4)ccc32)s1 [Example 97]
- EC50: 816 nM

SMILES: Cc1csc(-n2c(=O)n(Cc3sc(C)nc3C)c3ccc(S(=O)(=O)NC4(C)CC4)cc32)n1 [Example 106]
- EC50: 1520 nM

SMILES: Cc1nc(C)c(Cn2c(=O)n(-c3cccnn3)c3cc(S(=O)(=O)NC4(C)CC4)ccc32)s1 [Example 109]
- EC50: 878 nM

SMILES: Cc1nc(C)c(Cn2c(=O)n(-c3nncs3)c3cc(S(=O)(=O)NC4(C)CC4)ccc32)s1 [Example 110]
- EC50: 234 nM

SMILES: Cc1nc(C)c(Cn2c(=O)n(C3=CCCC3)c3cc(S(=O)(=O)NC4(C)CC4)ccc32)s1 [Example 113]
- EC50: 632 nM

SMILES: Cc1nnc(-n2c(=O)n(C)c3c(F)cc(S(=O)(=O)NC4(C)CC4)cc32)s1 [Example 114, 7-Fluoro-1-methyl-N-(1-methylcyclopropyl)-3-(5-methyl-1,3,4-thiadiazol-2-yl)-2-oxo-benzimidazole-5-sulfonamide]
- EC50: 679 nM

SMILES: Cc1nnc(-n2ccc3ccc(S(=O)(=O)NC4(C)CC4)cc32)s1 [Example 115, N-(1-Methylcyclopropyl)-1-(5-methyl-1,3,4-thiadiazol-2-yl)indole-6-sulfonamide]
- EC50: 2320 nM

SMILES: Cc1nnc(-n2c(Cc3cnn(C)c3)nc3ccc(S(=O)(=O)NC4(C)CC4)cc32)s1 [Example 120]
- EC50: 867 nM

SMILES: Cc1nnc(-n2c(CCc3cnn(C)c3)nc3ccc(S(=O)(=O)NC4(C)CC4)cc32)s1 [Example 121]
- EC50: 1020 nM

SMILES: Cc1nnc(-n2c(C)nc3ccc(S(=O)(=O)NC4(C)CC4)cc32)s1 [Example 122]
- EC50: 1530 nM

SMILES: Cc1nnc(-n2c(=O)n(C)c3c(C(F)(F)F)cc(S(=O)(=O)NC4(C)CC4)cc32)s1 [Example 123, 1-Methyl-N-(1-methylcyclopropyl)-3-(5-methyl-1,3,4-thiadiazol-2-yl)-2-oxo-7-(trifluoromethyl)benzimidazole-5-sulfonamide]
- EC50: 734 nM

SMILES: CC(=O)NCc1nc2ccc(S(=O)(=O)NC3(C)CC3)cc2n1-c1nnc(C)s1 [Example 124]
- EC50: 7680 nM

SMILES: Cc1nnc(-n2c(CCN)nc3ccc(S(=O)(=O)NC4(C)CC4)cc32)s1 [Example 125]
- EC50: 2560 nM

SMILES: Cc1nnc(-n2cc(Cc3ccccc3)c3ccc(S(=O)(=O)NC4(C)CC4)cc32)s1 [Example 126, 3-Benzyl-N-(1-methylcyclopropyl)-1-(5-methyl-1,3,4-thiadiazol-2-yl)indole-6-sulfonamide]
- EC50: 4280 nM

SMILES: Cc1nnc(-n2cc(Cc3ccc(F)cc3)c3ccc(S(=O)(=O)NC4(C)CC4)cc32)s1 [Example 127, 3-[(4-Fluorophenyl)methyl]-N-(1-methylcyclopropyl)-1-(5-methyl-1,3,4-thiadiazol-2-yl)indole-6-sulfonamide]
- EC50: 6050 nM

SMILES: Cc1nnc(-n2cc(CC3CC3)c3ccc(S(=O)(=O)NC4(C)CC4)cc32)s1 [Example 128, 3-(Cyclopropylmethyl)-N-(1-methylcyclopropyl)-1-(5-methyl-1,3,4-thiadiazol-2-yl)indole-6-sulfonamide]
- EC50: 2110 nM

SMILES: CCOC(=O)n1cc(Cc2sc(C)nc2C)c2ccc(S(=O)(=O)NC3(C)CC3)cc21 [Example 132, Ethyl 3-[(2,4-dimethylthiazol-5-yl)methyl]-6-[(1-methylcyclopropyl)sulfamoyl]indole-1-carboxylate]
- EC50: 7420 nM

SMILES: Cc1nnc(-n2c(=O)n(CCCN(C)C)c3ccc(S(=O)(=O)NC4(C)CC4)cc32)o1 [Example 133]
- EC50: 1140 nM

SMILES: COCCn1c(=O)n(-c2nnc(C)o2)c2cc(S(=O)(=O)NC3(C)CC3)ccc21 [Example 134]
- EC50: 910 nM

SMILES: Cc1nnc(-n2c(=O)n(CC3CCCN(C)C3)c3ccc(S(=O)(=O)NC4(C)CC4)cc32)s1 (stereo not drawn) [Example 136]
- EC50: 567 nM

SMILES: Cc1nnc(-n2c(=O)n(CCN(C)C)c3ccc(S(=O)(=O)NC4(C)CC4)cc32)o1 [Example 137]
- EC50: 2280 nM

SMILES: Cc1nnc(-n2c(=O)n(CC3CCCCN3C)c3ccc(S(=O)(=O)NC4(C)CC4)cc32)o1 (stereo not drawn) [Example 138]
- EC50: 1020 nM

SMILES: Cc1nnc(-n2c(=O)n(CC3CCCN(C)C3)c3ccc(S(=O)(=O)NC4(C)CC4)cc32)o1 (stereo not drawn) [Example 139]
- EC50: 1150 nM

SMILES: Cc1nnc(-n2c(=O)n(CCN3CCCCC3)c3ccc(S(=O)(=O)NC4(C)CC4)cc32)o1 [Example 140]
- EC50: 1970 nM

SMILES: Cc1nnc(-n2c(=O)n(CCN3CCOCC3)c3ccc(S(=O)(=O)NC4(C)CC4)cc32)o1 [Example 141]
- EC50: 1120 nM

SMILES: Cc1nnc(-n2c(=O)n(CCN3CCCC3)c3ccc(S(=O)(=O)NC4(C)CC4)cc32)o1 [Example 142]
- EC50: 3800 nM

SMILES: CC(=O)c1cn(-c2nnc(C)s2)c2cc(S(=O)(=O)NC3(C)CC3)ccc12 [Example 144, 3-Acetyl-N-(1-methylcyclopropyl)-1-(5-methyl-1,3,4-thiadiazol-2-yl)indole-6-sulfonamide]
- EC50: 595 nM

SMILES: Cc1nnc(-n2c(=O)n(CCN3CCCCC3)c3ccc(S(=O)(=O)NC4(C)CC4)cc32)s1 [Example 149]
- EC50: 735 nM

SMILES: COCCCn1c(=O)n(-c2nnc(C)o2)c2cc(S(=O)(=O)NC3(C)CC3)ccc21 [Example 150]
- EC50: 904 nM

SMILES: Cc1nnc(-n2c(=O)n(CCC(N)=O)c3ccc(S(=O)(=O)NC4(C)CC4)cc32)o1 [Example 151]
- EC50: 1160 nM

SMILES: Cc1nnc(-n2c(=O)n(CCN3CCCC3)c3ccc(S(=O)(=O)NC4(C)CC4)cc32)s1 [Example 153]
- EC50: 1120 nM

Reference: US10508086B2 (CANCER RESEARCH TECHNOLOGY LIMITED, priority 2014, dated 2019)
